# Earlier results, collected in patent publication US20230002726A1, “METHODS OF IN-OVO SCREENING OF ANTI-CANCER THERAPIES” (ICHILOV TECH LTD., priority 2020, published 2023).
# Test system: MSI-low tumors
# Details: stated as known; cited from earlier work
substance,measurement,value
Pembrolizumab [Keytruda],known effectiveness,ineffective
